Strand notation (5' to 3'): a small letter for the sugar, then the base; units joined by * are phosphorothioate-linked, units joined directly phosphodiester-linked; [ ] holds rarer units or linkages, { } end groups; capitals alone tell only the bases. {m7G-cap} = 7-methylguanosine cap added chemically (m7GDP-imidazolide) to the 5'-phosphate; e = 2'-O-(2-methoxyethyl) (MOE); [I] = hypoxanthine (inosine); d = 2'-deoxy (DNA); m = 2'-O-methyl; r = 2'-OH (RNA); {P} = phosphate; f = 2'-fluoro
Experiments:
[1] = system: HeLa cells; assay: Time-course dual luciferase assay of modified Firefly luciferase mRNA (Renilla control); format: cell-based; conditions: for Effect of cap/5′ UTR modification on protein production / translation / Protein expression (Firefly luciferase luminescence normalized to Renilla, then to m7G-rG), fold increase: HeLa cells; for Effect of cap/5′ UTR modification on protein production / translation: Fluc reporter, result in words; for Protein expression (Firefly luciferase luminescence normalized to Renilla, then to m7G-rG), fold increase: 8-, 24-, 48-hours post-transfection, benchmark m7G-rG
Protocol: The modularity of this workflow enabled divergent construction and evaluation of mRNAs featuring four different types of cap and 5′ UTR modifications (FIG. 8A): (1) base identities within the 5′ UTR, including as locations beyond the third base (+3 position), (2) phosphodiester linkages within the 5′ UTR, (3) sugar backbone modifications within the 5′ UTR, and (4) cap modifications. The effects of all of these different types of modifications on protein translation were assayed using Firefly luciferase reporter at 8-, 24-, and 48-hours post-transfection.
HeLa cells [ATCC, CCL-2] were maintained in DMEM culture media [ThermoFisher Scientific, 119951] containing 10% FBS and 1% penicillin-streptomycin [ThermoFisher Scientific, 15070063] in a 37° C. incubator with 5% CO2 and passaged at a ratio of 1:10 every 3 days. On the day before mRNA transfection, HeLa cells were seeded at 90% confluence in individual wells on 24-well plates. The following day, 50 ng of Renilla luciferase (internal control) mRNA and 50 ng of modified Firefly luciferase mRNA were transfected using Lipofectamine MessengerMAX Transfection Reagent [ThermoFisher Scientific, LMRNA003] per manufacturer's protocols. Additional controls that contain only Renilla luciferase mRNA or lipofection reagent only were included. Three individual transfections were conducted for each condition. 6 hours after transfection, the transfection media was removed, and cells were trypsinized and reseeded to three white clear-bottom 96-well plates [Corning, 3610] in phenol-red-free media. At 8-, 24-, and 48-hours post-transfection, cell culture media was removed and cells were rinsed with DPBS. Cells were lysed and luciferase activity was measured using the Promega Dual Glo Luciferase Assay System [Promega, E2920]. Firefly luminescence/Renilla luminescence for each well was used as mRNA activity readout. In cases where Nluc and Fluc were used, the protocol was conducted similarly using the Nano-Glo Dual-Luciferase Reporter Assay System [Promega, N1610].

[2] = biological target: T1, eIF4E (Homo sapiens, UniProt P06730); assay: eIF4E electrophoretic mobility shift assay (EMSA); format: binding; conditions: AF647-labeled capped oligos, read-out: eIF4E dissociation constant (Kd)
T1 construct: His; purchased Cayman Chemical Inc 25150
Protocol: eIF4E affinity to fluorophore-labeled capped RNA oligonucleotides was quantified through electrophoretic mobility shift assay (EMSA) (FIGS. 14D and 9A-9E).
Capped oligonucleotides were labeled on the 3′ end using AF647 labeled cytidine-5′-phosphate-3′-(6-aminohexyl) phosphate [Jena Bioscience, NU-1706-AF647] and T4 RNA ligase ligated AF647-labeled cytidine onto the capped oligos using manufacturer's protocols. Oligos were then incubated in the binding buffer (1 mM DTT, 50 mM KCl, 10 mM Tris-HCl (pH 7.6), Novex Hi-Density TBE Sample Buffer [Invitrogen, LC6678]) with varying eIF4E-His [Cayman Chemical Inc, 25150] concentrations prepared by sequential dilutions from the stock solution. The oligos and […] were incubated at 4° C. for 30 mins and characterized by EMSA with Novex TBE Gels, 4-20% [Invitrogen, EC6225BOX] at 4° C. AF647 labeled oligos were imaged with BioRad ChemiDoc MP Imaging System [12003154] and band intensities were quantified using ImageJ. For Kd calculation, the proportions of bound were plotted against eIF4E concentration using GraphPad Prism (Specific binding with Hill slope).

[3] = biological target: T2, human decapping enzyme 2 (hDcp2) (Homo sapiens, UniProt Q8IU60); assay: hDcp2 decapping assay; format: biochemical; conditions: 23-nt capped oligos; result in words
T2 construct: purchased Enzymax LLC 86
Protocol: Next, the influence of modifications on decapping activity was examined. To this end, 23-nucleotide (23-nt) oligonucleotides with various modification patterns were subjected to decapping reactions and analyzed at different time intervals (FIGS. 14E and 9I).
500 ng of capped oligos were incubated in 75 μL decapping reaction buffer (10 mM Tris-HCl (pH 7.5), 100 mM NaCl, 2 mM MgCl2, 1 mM DTT, 2 mM MnCl2, 1:25 SUPERaseIn (v/v)) with 300 ng of hDcp2 [Enzymax LLC, 86] at 37° C. At indicated time points, 5 μL of reaction mixture was aliquoted out into 10 μL of denaturing gel-loading buffer [NEB, B0363S, with urea added to a final concentration of 5 M] and cooled to −20° C. until all time points were collected. The fractions were analyzed by PAGE using Novex 15% TBE-Urea gel [Invitrogen, EC6885BOX] by running at 100 V for 2 hours and stained by 1×SYBR Gold [ThermoFisher Scientific, S11494], and visualized using BioRad ChemiDoc MP Imaging System [12003154]. Band intensities were quantified using ImageJ.

T1 sequence (P06730 whole entry): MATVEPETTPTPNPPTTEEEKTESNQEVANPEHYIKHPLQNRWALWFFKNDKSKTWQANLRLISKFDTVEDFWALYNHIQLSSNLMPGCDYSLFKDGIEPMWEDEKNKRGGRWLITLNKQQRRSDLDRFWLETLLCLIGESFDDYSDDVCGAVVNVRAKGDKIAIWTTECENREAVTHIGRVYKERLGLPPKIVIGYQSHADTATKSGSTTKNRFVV

| Substance | Effect of cap/5′ UTR modification on protein production / translation [1] | other results |
| --- | --- | --- |
| construct 5: m7G cap; /5Phos//iN6Me-rA/rGrArGrArArUrArArArArA (SEQ ID NO: 6) (AGAGAAUAAAAA; m7G cap; 5' phosphate; N6-methyl-A; modified_base 1 OTHER; 5'-phosphate modified N6-methyladenosine) | enhanced protein production | – |
| construct 4: m7G cap; /5Phos/rIrGrArGrArArUrArArArArA (SEQ ID NO: 5) ({P}-r[I]rGrArGrArArUrArArArArA; m7G cap on the 5'-phosphate) | enhanced protein production | – |
| construct 21: LNAm7G cap; /5Phos/rArGrArGrArArUrArArArArA (SEQ ID NO: 22) ({P}-rArGrArGrArArUrArArArArA; LNA-modified m7G cap on the 5'-phosphate) | – | Protein expression (Firefly luciferase luminescence normalized to Renilla, then to m7G-rG), fold increase [1]: 4.5 fold |
| construct 24: LNAm7G cap; /5Phos/mAmGmAmGmAmArUrArArArArA (SEQ ID NO: 25) ({P}-mAmGmAmGmAmArUrArArArArA; LNA-modified m7G cap on the 5'-phosphate) | – | Protein expression (Firefly luciferase luminescence normalized to Renilla, then to m7G-rG), fold increase [1]: 7.5 fold; Kd [2]: 1.57 ± 0.116 µM |
| construct 10: m7G cap; /5Phos/ArGrArGrArArUrArArArArA (SEQ ID NO: 11) ({m7G-cap}-dArGrArGrArArUrArArArArA) | negligible changes | – |
| construct 28: m7G cap; OU handle only; /5Phos/rArGrArUrArArA/i5OCTdU/rArArArArArA (SEQ ID NO: 38) (AGATAAATAAAAAA; m7G cap; internal octyne-dU handle; modified_base 1 OTHER; 5'-phosphate modified nucleotide; modified_base 8 OTHER; 5-Octadiynyl modified uracil; misc_feature 1..7 RNA; misc_feature 8 DNA; misc_feature 9..14 RNA) | – | Kd [2]: 2.21 µM |
| construct 43: m7G cap; /5Phos/mAmGmAmGmAmAmUmAmAmAmAmAmAmGmGmGmAmAmUmAmAmAmC (SEQ ID NO: 26) ({P}-mAmGmAmGmAmAmUmAmAmAmAmAmAmGmGmGmAmAmUmAmAmAmC; m7G cap on the 5'-phosphate) | – | Susceptibility / resistance to hDcp2 decapping [3]: increased decapping resistance to a similar level as LNA modification |
| construct 19: ClBn7G cap; /5Phos/rArGrArGrArArUrArArArArA (SEQ ID NO: 20) (AGAGAAUAAAAA; ClBn7G cap, 5' phosphate; modified_base 1 OTHER; 5'-phosphate modified nucleotide) | did not outperform m7G | – |
| construct 3: m7G cap; /5Phos/rCrGrArGrArArUrArArArArA (SEQ ID NO: 4) (CGAGAAUAAAAA; m7G cap, 5' phosphate; modified_base 1 OTHER; 5'-phosphate modified nucleotide) | A>G~C~U | – |
| construct 18: Bn7G cap; /5Phos/rArGrArGrArArUrArArArArA (SEQ ID NO: 19) (AGAGAAUAAAAA; Bn7G cap, 5' phosphate; modified_base 1 OTHER; 5'-phosphate modified nucleotide) | did not outperform m7G | – |
| construct 2: m7G cap; /5Phos/rUrGrArGrArArUrArArArArA (SEQ ID NO: 3) (UGAGAAUAAAAA; m7G cap, 5' phosphate; modified_base 1 OTHER; 5'-phosphate modified nucleotide) | A>G~C~U | – |
| construct 16: m7G cap; /5Phos//i2MOErA//i2MOErG//i2MOErA//i2MOErG//i2MOErA//i2MOErA/rUrArArArArA (SEQ ID NO: 17) ({P}-eAeGeAeGeAeArUrArArArArA; m7G cap on the 5'-phosphate) | – | Protein expression (Firefly luciferase luminescence normalized to Renilla, then to m7G-rG), fold increase [1]: 5.4 fold |
| construct 42: dual LNAm7G-capped; /5Phos/rArGrArGrArUrArA/3AzideN/ clicked to /5Phos/rArGrArUrArArA/i5OCTdU/rArArArArArA (SEQ ID NO: 120) (AGATAAATAAAAAA; dual LNA-m7G caps via click branch; modified_base 1 OTHER; 5'-phosphate modified nucleotide; modified_base 8 OTHER; 5-Octadiynyl modified uracil; misc_feature 1..7 RNA; misc_feature 8 DNA; misc_feature 9..14 RNA) | – | Kd [2]: 1.28 µM |
| construct 20: ClBnOEt7G cap; /5Phos/rArGrArGrArArUrArArArArA (SEQ ID NO: 21) (AGAGAAUAAAAA; ClBnOEt7G cap, 5' phosphate; modified_base 1 OTHER; 5'-phosphate modified nucleotide) | did not outperform m7G | – |
| construct 26: m7G-capped azide oligo /5Phos/rArGrArGrArUrArA/3AzideN/ clicked to uncapped rArArA/i5OCTdU/rArArArArArA (SEQ ID NO: 33) (AAATAAAAAA; m7G-capped azide oligo clicked to internal octyne-dU; modified_base 4 OTHER; 5-Octadiynyl modified uracil; misc_feature 1..3 RNA; misc_feature 4 DNA; misc_feature 5..10 RNA) | – | Translation of branched / dual-capped Fluc mRNA (bioluminometry), result in words ([1]; topological screening: OU handle position, branching point, branch length, PS): effectively induce mRNA translation |
| construct 12: m7G cap; /5Phos//i2MOErA/rGrArGrArArUrArArArArA (SEQ ID NO: 13) ({m7G-cap}-eArGrArGrArArUrArArArArA) | – | Protein expression (Firefly luciferase luminescence normalized to Renilla, then to m7G-rG), fold increase [1]: 4.8 fold |
| construct 9: m7G cap; /5Phos//ibetaL-rA/rGrArGrArArUrArArArArA (SEQ ID NO: 10) (AGAGAAUAAAAA; m7G cap; 5' phosphate; beta-L-A; modified_base 1 OTHER; 5'-phosphate modified L-adenosine) | negligible changes | – |
| construct 1: m7G cap; /5Phos/rArGrArGrArArUrArArArArA (SEQ ID NO: 2) (AGAGAAUAAAAA; m7G cap, 5' phosphate; modified_base 1 OTHER; 5'-phosphate modified nucleotide) | A>G~C~U | – |
| construct 8: m7G cap; /5Phos//i2FA/rGrArGrArArUrArArArArA (SEQ ID NO: 9) ({P}-fArGrArGrArArUrArArArArA; m7G cap on the 5'-phosphate) | hindered translation | – |

Reference: US20260263638A1, “COMPOSITIONS AND METHODS TO IMPROVE RNA PROPERTIES USING BASE, PHOSPHODIESTER LINKAGE, SUGAR BACKBONE, AND CAP MODIFICATIONS” (The Broad Institute, Inc., priority 2023, published 2026)
